From US9546172B2, “Pyrazolo[3,4-d]pyrimidine and pyrazolo[2,3-d]pyrimidine compounds as kinase inhibitors” (Pharmacyclics LLC, priority 2011, dated 2017)

Key:
Format in all cases: biochemical
[1] = biological target: Lyn (Homo sapiens, UniProt P07948); test: Lyn kinase inhibition
[2] = biological target: CSK (Homo sapiens, UniProt P41240); test: CSK kinase inhibition
[3] = biological target: RET (Homo sapiens, UniProt P07949); test: RET kinase inhibition
[4] = biological target: C-src (Homo sapiens, UniProt P12931); test: C-src kinase inhibition
Protocol: (§1) Btk kinase activity was determined using a time-resolved fluorescence resonance energy transfer (TR-FRET) methodology. Measurements were performed in a reaction volume of 50 μL using 96-well assay plates. […] The reaction was quenched by the addition of 1.2 equivalents of EDTA (relative to divalent cation) in 25 μL of 1× Lance buffer (Perkin-Elmer). Streptavidin-APC (Perkin-Elmer) and Eu-labeled p-Tyr100 antibody (Perkin-Elmer) in 1× Lance buffer were added in a 25 μL volume to give final concentrations of 100 nM and 2.5 nM, respectively, and the mixture was allowed to incubate for one hour. The TR-FRET signal was measured on a multimode plate reader with an excitation wavelength (λEx) of 330 nm and detection wavelengths (λEm) of 615 and 665 nm. Activity was determined by the ratio of the fluorescence at 665 nm to that at 615 nm. For each compound, enzyme activity was measured at various concentrations of compound. Negative control reactions were performed in the absence of inhibitor in replicates of six, and two no-enzyme controls were used to determine baseline fluorescence levels Inhibition constants, Ki(app), were obtained using the program BatchKi (Kuzmic et al. (2000), Anal. Biochem. 286:45-50). IC50s were obtained according to the equation: IC50={Ki(app)/(1+[ATP]/Km^ATP)}+[E]total/2; For all kinases, [ATP]=Km^ATP, [Btk]total=0.5 nM and [Lck]total=6 nM.

[5] = biological target: BLK (Homo sapiens, UniProt P51451); test: BLK kinase inhibition
Protocol: as §1

[6] = biological target: T1, Tec (Homo sapiens, UniProt P42680); test: Tec kinase inhibition
T1 sequence (P42680 1-631): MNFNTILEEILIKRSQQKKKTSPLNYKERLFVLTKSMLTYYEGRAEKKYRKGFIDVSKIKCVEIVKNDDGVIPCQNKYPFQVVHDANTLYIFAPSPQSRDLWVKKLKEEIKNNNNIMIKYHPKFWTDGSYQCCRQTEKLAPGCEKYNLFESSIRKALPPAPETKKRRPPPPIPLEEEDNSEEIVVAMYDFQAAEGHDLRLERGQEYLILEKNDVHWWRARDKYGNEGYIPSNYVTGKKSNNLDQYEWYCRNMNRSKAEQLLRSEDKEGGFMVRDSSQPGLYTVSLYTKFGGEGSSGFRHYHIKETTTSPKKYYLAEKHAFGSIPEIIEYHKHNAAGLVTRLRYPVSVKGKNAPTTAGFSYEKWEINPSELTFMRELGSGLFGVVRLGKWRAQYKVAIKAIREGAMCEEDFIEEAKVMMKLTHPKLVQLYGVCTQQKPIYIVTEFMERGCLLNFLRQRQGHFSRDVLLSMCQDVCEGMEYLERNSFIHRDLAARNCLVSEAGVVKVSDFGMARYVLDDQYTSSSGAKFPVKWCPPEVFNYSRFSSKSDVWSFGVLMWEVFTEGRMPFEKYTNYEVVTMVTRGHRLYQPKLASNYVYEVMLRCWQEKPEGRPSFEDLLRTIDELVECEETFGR
Protocol: as §1

[7] = biological target: T2, BMX (Homo sapiens, UniProt P51813); test: BMX kinase inhibition
T2 sequence (P51813 1-675): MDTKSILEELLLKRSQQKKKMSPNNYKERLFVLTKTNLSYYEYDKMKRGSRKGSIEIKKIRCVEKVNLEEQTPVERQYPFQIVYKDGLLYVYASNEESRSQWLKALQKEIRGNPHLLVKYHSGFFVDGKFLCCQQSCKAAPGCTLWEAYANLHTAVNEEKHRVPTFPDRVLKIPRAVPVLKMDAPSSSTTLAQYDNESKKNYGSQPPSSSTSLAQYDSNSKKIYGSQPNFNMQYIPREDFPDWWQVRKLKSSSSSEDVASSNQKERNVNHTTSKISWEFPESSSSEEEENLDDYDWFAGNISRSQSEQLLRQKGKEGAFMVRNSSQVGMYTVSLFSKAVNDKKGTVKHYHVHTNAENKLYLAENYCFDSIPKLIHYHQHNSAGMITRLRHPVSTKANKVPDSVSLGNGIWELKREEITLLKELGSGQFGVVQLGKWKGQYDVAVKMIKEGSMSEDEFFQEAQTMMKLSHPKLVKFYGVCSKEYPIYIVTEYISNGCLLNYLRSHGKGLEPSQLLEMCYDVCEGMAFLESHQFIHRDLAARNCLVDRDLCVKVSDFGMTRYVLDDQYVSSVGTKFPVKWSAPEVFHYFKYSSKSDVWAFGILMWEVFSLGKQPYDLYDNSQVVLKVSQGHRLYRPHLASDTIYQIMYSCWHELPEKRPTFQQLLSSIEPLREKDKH

[8] = biological target: T3, Btk (Homo sapiens, UniProt Q06187); test: Btk in vitro inhibitory activity (one of Methods A, B, C); conditions: determined in one of three in vitro assays (Examples 125-127)
T3 construct: purified from insect cells as a full-length construct containing a N-terminal 6×-His tag; 6xHis (N); host or cells: insect cells (baculovirus Sf21 in Method B)
Protocol: The Btk IC50s of compounds disclosed herein was determined in one of the three in vitro assays described in Examples 125-127.
as §1
Kinase activity is measured in vitro using electrophoretic mobility shift assay. The kinase reactions are assembled in a total volume of 25 μL in 384 well plates. […] The reaction is incubated for one hour and is quenched by the addition of 45 μL of termination buffer (100 mM HEPES, pH7.5, 0.01% Triton X-100, 30 mM EDTA). The terminated reactions are analyzed using 12 channel LabChip® 3000 microfluidic detection instrument (Caliper Life Sciences). The enzymatic phosphorylation of the peptide results in a change in net charge, enabling electrophoretic separation of product from substrate peptide. As substrate and product peptides are separated, two peaks of fluorescence are observed. Change in the relative fluorescence intensity of the substrate and product peaks is the parameter measured, reflecting enzyme activity. In the presence of an inhibitor, the ratio between product and substrate is altered: the signal of the product decreases, while the signal of the substrate increases.
Activity in each sample is determined as the product to sum ratio (PSR): P/(S+P), where P is the peak height of the product peptide and S is the peak height of the substrate peptide. For each compound, enzyme activity is measured at various concentrations (12 concentrations of compound spaced by 3× dilution intervals). Negative control samples (0%-inhibition in the absence of inhibitor) and positive control samples (100%-inhibition, in the presence of 20 mM EDTA) are assembled in replicates of four and are used to calculate %-inhibition values for each inhibitor at each concentration. Percent inhibition (Pinh) is determined using following equation: Pinh=(PSR0%−PSRinh)/(PSR0%−PSR100%)*100, where PSRinh is the product sum ratio in the presence of inhibitor, PSR0% is the average product sum ration in the absence of inhibitor and PSR100% is the average product sum ratio in 100%-inhibition control samples;
The IC50 values of inhibitors are determined by 4 parameter sigmoidal dose-response model fitting of the inhibition curves (Pinh versus inhibitor concentration) using XLfit 4 software.
Human Btk kinase (Genbank accession # NP_000052) was purified from insect cells as a full-length construct containing a N-terminal 6×-His tag. Btk kinase activity was determined using a radiometric filter binding assay. Measurements are performed in a low reaction volume 384-well assay plates. […]

[9] = biological target: Lck (Homo sapiens, UniProt P06239); test: Lck kinase inhibition
Protocol: as §1

[10] = biological target: EGFR (Homo sapiens, UniProt P00533); test: EGFR kinase inhibition
Chain of EGFR (P00533 25-1210): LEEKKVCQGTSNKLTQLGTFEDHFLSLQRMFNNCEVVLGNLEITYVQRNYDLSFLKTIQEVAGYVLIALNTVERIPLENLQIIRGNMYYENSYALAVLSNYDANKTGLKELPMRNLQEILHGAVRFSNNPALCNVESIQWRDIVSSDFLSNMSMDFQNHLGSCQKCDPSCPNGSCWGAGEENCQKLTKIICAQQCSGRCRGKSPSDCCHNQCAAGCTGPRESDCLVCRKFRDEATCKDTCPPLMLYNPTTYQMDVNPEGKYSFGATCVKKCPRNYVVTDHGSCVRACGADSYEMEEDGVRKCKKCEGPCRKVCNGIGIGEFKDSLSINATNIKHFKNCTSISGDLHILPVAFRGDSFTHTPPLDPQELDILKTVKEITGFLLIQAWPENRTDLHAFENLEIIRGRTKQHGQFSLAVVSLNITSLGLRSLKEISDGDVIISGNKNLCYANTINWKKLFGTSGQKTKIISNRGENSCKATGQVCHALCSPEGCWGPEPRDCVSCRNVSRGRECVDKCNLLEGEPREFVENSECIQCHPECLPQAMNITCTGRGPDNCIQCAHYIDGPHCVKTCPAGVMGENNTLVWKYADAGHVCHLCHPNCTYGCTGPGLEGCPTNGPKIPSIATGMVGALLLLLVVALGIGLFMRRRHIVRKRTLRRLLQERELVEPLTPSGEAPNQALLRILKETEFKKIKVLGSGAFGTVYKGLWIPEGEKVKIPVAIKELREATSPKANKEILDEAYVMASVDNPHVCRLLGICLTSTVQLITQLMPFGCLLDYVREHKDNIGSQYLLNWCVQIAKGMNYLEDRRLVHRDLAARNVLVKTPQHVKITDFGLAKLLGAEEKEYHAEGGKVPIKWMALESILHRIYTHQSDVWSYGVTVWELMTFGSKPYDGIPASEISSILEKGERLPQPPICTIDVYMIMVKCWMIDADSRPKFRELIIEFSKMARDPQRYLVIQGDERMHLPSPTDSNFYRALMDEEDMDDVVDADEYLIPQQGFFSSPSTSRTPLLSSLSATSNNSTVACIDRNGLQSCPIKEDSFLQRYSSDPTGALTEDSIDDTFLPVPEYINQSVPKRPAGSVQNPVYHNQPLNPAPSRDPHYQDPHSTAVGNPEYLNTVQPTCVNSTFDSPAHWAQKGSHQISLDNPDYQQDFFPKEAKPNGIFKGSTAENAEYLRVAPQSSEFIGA

Chain of Lck (P06239 whole entry): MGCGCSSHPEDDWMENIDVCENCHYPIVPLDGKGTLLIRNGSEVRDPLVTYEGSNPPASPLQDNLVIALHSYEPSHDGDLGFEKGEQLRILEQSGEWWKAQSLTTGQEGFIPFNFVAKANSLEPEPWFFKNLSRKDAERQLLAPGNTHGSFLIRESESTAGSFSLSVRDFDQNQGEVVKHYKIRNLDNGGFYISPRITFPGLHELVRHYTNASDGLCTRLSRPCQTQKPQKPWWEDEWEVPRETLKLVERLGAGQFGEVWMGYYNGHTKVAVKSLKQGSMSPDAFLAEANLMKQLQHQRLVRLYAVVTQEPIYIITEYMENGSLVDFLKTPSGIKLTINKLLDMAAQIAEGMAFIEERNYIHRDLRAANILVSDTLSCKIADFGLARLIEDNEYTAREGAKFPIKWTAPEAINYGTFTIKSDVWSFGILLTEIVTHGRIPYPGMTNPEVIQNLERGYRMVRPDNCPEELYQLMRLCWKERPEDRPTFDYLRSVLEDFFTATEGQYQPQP
Chain of C-src (P12931 whole entry): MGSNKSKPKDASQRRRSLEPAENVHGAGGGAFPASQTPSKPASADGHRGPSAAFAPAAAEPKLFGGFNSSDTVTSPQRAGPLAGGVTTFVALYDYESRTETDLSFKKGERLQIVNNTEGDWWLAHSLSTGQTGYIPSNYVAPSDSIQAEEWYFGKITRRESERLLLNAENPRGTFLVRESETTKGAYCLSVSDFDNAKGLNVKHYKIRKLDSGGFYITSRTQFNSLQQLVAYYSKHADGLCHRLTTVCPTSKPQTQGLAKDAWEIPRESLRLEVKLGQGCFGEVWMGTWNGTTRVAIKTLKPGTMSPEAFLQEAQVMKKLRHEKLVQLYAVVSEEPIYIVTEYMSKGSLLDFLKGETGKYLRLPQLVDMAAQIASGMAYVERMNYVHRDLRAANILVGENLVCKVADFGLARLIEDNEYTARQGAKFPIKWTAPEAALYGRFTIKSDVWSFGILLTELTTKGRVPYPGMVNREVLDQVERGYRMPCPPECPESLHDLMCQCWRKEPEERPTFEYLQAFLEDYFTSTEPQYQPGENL
T3 sequence (Q06187 whole entry): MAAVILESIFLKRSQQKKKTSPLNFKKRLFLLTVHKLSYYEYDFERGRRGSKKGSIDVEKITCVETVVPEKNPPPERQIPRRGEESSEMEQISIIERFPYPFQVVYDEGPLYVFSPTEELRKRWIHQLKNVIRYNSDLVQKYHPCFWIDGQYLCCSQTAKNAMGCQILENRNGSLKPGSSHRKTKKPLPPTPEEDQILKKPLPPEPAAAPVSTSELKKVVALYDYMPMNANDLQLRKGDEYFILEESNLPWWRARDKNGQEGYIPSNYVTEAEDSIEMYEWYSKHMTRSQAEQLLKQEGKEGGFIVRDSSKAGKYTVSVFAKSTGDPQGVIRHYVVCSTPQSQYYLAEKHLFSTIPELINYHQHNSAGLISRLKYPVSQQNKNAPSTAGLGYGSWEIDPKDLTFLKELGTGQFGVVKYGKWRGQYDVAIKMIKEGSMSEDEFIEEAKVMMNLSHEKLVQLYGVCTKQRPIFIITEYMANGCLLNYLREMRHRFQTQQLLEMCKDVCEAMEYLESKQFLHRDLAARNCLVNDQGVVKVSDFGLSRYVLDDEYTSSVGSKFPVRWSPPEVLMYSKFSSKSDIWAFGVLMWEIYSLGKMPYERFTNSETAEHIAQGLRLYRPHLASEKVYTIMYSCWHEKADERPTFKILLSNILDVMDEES
Chain of Lyn (P07948 whole entry): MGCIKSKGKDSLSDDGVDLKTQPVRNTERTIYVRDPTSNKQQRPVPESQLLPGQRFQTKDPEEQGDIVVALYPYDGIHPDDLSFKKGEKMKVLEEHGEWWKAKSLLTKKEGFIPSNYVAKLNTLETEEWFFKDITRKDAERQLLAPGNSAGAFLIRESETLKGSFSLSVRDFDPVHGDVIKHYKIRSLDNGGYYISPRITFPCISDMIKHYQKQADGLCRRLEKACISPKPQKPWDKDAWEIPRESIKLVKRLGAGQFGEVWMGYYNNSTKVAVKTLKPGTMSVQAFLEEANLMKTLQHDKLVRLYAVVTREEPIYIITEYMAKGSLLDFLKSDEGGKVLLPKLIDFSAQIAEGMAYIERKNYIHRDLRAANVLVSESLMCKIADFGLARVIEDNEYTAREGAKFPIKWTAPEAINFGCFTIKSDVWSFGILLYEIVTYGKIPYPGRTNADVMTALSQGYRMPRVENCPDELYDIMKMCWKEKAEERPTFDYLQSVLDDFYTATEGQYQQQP
Chain of BLK (P51451 whole entry): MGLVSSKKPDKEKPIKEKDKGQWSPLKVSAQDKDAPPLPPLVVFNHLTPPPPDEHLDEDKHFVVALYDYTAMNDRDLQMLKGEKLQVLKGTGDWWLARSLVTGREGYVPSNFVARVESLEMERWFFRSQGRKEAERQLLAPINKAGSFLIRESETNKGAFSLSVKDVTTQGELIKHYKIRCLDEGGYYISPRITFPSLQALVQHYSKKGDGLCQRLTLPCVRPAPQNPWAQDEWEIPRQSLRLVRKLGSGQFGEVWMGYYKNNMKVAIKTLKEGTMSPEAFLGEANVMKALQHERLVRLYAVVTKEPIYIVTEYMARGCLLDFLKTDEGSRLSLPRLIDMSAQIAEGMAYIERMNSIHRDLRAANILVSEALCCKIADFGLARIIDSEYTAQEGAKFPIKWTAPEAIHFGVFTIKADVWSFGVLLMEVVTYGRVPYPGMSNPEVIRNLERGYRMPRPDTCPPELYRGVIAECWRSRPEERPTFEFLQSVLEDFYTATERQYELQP
Chain of RET (P07949 29-1114): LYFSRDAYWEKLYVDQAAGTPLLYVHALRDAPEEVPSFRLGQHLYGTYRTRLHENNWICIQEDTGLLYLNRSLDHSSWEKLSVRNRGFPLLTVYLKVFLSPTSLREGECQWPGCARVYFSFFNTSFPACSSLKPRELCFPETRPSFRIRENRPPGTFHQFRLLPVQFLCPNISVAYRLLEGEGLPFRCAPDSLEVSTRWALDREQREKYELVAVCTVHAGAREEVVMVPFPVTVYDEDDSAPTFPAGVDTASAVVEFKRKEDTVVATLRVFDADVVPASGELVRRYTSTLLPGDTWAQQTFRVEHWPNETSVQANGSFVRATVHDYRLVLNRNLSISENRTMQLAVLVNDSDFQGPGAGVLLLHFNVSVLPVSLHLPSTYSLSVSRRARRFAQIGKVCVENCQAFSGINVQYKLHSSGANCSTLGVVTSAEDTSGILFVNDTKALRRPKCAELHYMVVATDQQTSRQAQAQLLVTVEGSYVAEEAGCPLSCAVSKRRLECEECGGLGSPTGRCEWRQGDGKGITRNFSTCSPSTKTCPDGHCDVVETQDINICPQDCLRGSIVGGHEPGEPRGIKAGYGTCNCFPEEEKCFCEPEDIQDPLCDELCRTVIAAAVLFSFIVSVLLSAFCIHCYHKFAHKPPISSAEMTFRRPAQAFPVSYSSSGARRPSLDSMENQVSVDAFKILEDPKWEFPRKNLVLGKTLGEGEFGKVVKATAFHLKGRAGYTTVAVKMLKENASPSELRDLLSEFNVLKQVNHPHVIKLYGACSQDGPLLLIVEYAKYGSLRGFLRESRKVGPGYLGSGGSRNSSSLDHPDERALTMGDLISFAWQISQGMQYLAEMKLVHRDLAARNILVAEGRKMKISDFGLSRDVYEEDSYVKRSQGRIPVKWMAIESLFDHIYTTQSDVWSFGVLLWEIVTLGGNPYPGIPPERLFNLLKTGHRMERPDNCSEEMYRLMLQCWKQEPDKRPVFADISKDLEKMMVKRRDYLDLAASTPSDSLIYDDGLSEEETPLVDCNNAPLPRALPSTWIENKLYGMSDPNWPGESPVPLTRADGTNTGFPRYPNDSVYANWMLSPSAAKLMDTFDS

Structure (SMILES) | IC50 [1] [µM] | IC50 [3] [µM] | IC50 [4] [µM] | IC50 [8] [µM] | IC50 [9] [µM] | IC50 [10] [µM] | IC50 [2] [µM] | IC50 [5] [µM] | IC50 [6] [µM] | IC50 [7] [µM]
COCCOc1ccc(-c2nn([C@@H]3CCN(C(=O)/C=C/CN(C)C)C3)c3ncnc(N)c23)cc1 [Example 2, (E)-1-((R)-3-(4-amino-3-(4-(2-methoxyethoxy)phenyl)-1H-pyrazolo[3,4-d]pyrimidin-1-yl)pyrrolidin-1-yl)-4-(dimethylamino)but-2-en-1-one] | > 1 | > 1 | > 1 | < 0.1 | > 1 |  | > 1 | < 0.1 | 0.1 to 1 | < 0.1
CN(C)C/C=C/C(=O)Nc1ccc(-n2nc(-c3ccc(Cl)cc3)c3c(N)ncnc32)cc1 [Example 17, (E)-N-(4-(4-amino-3-(4-chlorophenyl)-1H-pyrazolo[3,4-d]pyrimidin-1-yl)phenyl)-4-(dimethylamino)but-2-enamide] | < 0.1 |  | < 0.1 | < 0.1 | < 0.1 | < 0.1 | 0.1 to 1 | < 0.1 | < 0.1 | < 0.1
C=CC(=O)N(C)c1cccc(-n2nc(-c3ccc(Cl)cc3)c3c(N)ncnc32)c1 [Example 22, N-(3-(4-amino-3-(4-chlorophenyl)-1H-pyrazolo[3,4-d]pyrimidin-1-yl)phenyl)-N-methylacrylamide] | > 1 |  | 0.1 to 1 | < 0.1 | > 1 | < 0.1 |  |  |  | 
CN(C(=O)/C=C/CN(C)C1CC1)c1cccc(-n2nc(-c3ccc(Cl)cc3)c3c(N)ncnc32)c1 [Example 25, (E)-N-(3-(4-amino-3-(4-chlorophenyl)-1H-pyrazolo[3,4-d]pyrimidin-1-yl)phenyl)-4-(cyclopropyl(methyl)amino)-N-methylbut-2-enamide] | > 1 |  | 0.1 to 1 | < 0.1 | > 1 | < 0.1 | > 1 | 0.1 to 1 | < 0.1 | < 0.1
CN(C)C/C=C/C(=O)N(C)c1ccc(-n2nc(-c3ccc(Cl)cc3)c3c(N)ncnc32)nc1 [Example 28, (E)-N-(6-(4-amino-3-(4-chlorophenyl)-1H-pyrazolo[3,4-d]pyrimidin-1-yl)pyridin-3-yl)-4-(dimethylamino)-N-methylbut-2-enamide] | > 1 |  | 0.1 to 1 | < 0.1 | 0.1 to 1 | > 1 |  |  |  | 
COc1cc(-c2nn(-c3ccc(N(C)C(=O)/C=C/CN(C)C)cn3)c3ncnc(N)c23)ccc1C [Example 29, (E)-N-(6-(4-amino-3-(3-methoxy-4-methylphenyl)-1H-pyrazolo[3,4-d]pyrimidin-1-yl)pyridin-3-yl)-4-(dimethylamino)-N-methylbut-2-enamide] | 0.1 to 1 |  | < 0.1 | < 0.1 | 0.1 to 1 | > 1 |  |  |  | 

More lines, main results first:

IC50 [1] [µM] | IC50 [3] [µM] | IC50 [4] [µM] | IC50 [8] [µM] | IC50 [9] [µM] | IC50 [10] [µM] | Structure (SMILES) | IC50 [2] [µM] | IC50 [5] [µM] | IC50 [6] [µM] | IC50 [7] [µM]
< 0.1 |  | < 0.1 | < 0.1 | < 0.1 | 0.1 to 1 | COc1cc(-c2nn(-c3ccc(N(C)C(=O)/C=C/CN(C)C)cc3)c3ncnc(N)c23)ccc1C [Example 15, (E)-N-(4-(4-amino-3-(3-methoxy-4-methylphenyl)-1H-pyrazolo[3,4-d]pyrimidin-1-yl)phenyl)-4-(dimethylamino)-N-methylbut-2-enamide] |  |  |  | 
< 0.1 |  | < 0.1 | < 0.1 | < 0.1 | < 0.1 | COc1cc(-c2nn(-c3ccc(NC(=O)/C=C/CN(C)C)cc3)c3ncnc(N)c23)ccc1C [Example 16, (E)-N-(4-(4-amino-3-(3-methoxy-4-methylphenyl)-1H-pyrazolo[3,4-d]pyrimidin-1-yl)phenyl)-4-(dimethylamino)but-2-enamide] | < 0.1 | < 0.1 | < 0.1 | < 0.1
0.1 to 1 |  | < 0.1 | < 0.1 | < 0.1 | < 0.1 | C=CC(=O)N(C)c1ccc(-n2nc(-c3ccc(C)c(OC)c3)c3c(N)ncnc32)cc1 [Example 18, N-(4-(4-amino-3-(3-methoxy-4-methylphenyl)-1H-pyrazolo[3,4-d]pyrimidin-1-yl)phenyl)-N-methylacrylamide] |  |  |  | 
< 0.1 |  | < 0.1 | < 0.1 | < 0.1 | < 0.1 | C=CC(=O)Nc1ccc(-n2nc(-c3ccc(Cl)cc3)c3c(N)ncnc32)cc1 [Example 19, N-(4-(4-amino-3-(4-chlorophenyl)-1H-pyrazolo[3,4-d]pyrimidin-1-yl)phenyl)acrylamide] |  |  |  | 
0.1 to 1 |  | 0.1 to 1 | < 0.1 | 0.1 to 1 |  | CN(C/C=C/C(=O)Nc1cccc(-n2nc(-c3ccc(Cl)cc3)c3c(N)ncnc32)c1)C1CC1 [Example 26, (E)-N-(3-(4-amino-3-(4-chlorophenyl)-1H-pyrazolo[3,4-d]pyrimidin-1-yl)phenyl)-4-(cyclopropyl(methyl)amino)but-2-enamide] |  |  |  | 
